Where two headings read alike, the source gives them in different places.
Assays:
Assay type in all cases: binding
1LysM module of AtlA [1] = target: T1, 1LysM module of AtlA (Enterococcus faecalis, UniProt P37710); assay: biochemical
L1L2L3 = target: T2, L1L2L3 (Enterococcus faecalis, UniProt P37710); assay: Steady-state SPR; settings: SD
T2 sequence (P37710 338-542 A476S/S477A): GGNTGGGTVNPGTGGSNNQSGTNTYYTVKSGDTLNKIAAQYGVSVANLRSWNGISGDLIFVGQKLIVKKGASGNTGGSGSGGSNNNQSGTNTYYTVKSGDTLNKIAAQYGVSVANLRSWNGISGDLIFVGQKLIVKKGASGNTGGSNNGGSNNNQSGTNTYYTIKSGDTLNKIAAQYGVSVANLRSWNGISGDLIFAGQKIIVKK

L1 = L1 (Enterococcus faecalis, UniProt P37710); assay: Steady-state SPR
1 (1LysM, WT) [2] = target: T3, 1 (1LysM, WT) (Enterococcus faecalis, UniProt P37710); assay: Steady-state SPR
L1L2 = L1L2 (Enterococcus faecalis, UniProt P37710); assay: Steady-state SPR
L1–L6 = target: T4, L1–L6 (Enterococcus faecalis, UniProt P37710); assay: Steady-state SPR; settings: SD
T4 sequence (P37710 338-737): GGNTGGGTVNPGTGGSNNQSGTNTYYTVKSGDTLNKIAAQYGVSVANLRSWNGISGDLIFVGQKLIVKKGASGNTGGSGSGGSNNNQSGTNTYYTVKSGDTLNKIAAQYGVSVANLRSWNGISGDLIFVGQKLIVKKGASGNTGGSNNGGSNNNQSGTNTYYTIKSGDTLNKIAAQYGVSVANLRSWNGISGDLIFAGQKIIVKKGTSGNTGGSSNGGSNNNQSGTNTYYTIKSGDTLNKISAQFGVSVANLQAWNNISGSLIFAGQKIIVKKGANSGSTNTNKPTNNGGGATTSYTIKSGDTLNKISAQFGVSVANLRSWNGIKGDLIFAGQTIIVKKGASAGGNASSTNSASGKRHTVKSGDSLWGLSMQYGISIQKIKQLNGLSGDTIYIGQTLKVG

1LysM module of AtlA [3] = target: T1, 1LysM module of AtlA; assay: biochemical; settings: Apparent KD to 1LysM (SPR), single LysM module; ± standard deviation
1 (1LysM, WT) [4] = target: T3, 1 (1LysM, WT); assay: SPR

| Structure (SMILES) | Kd (L1L2L3) [µM] | Kd (L1–L6) [µM] | Kd (L1; SD) [µM] | Kd (L1L2; SD) [µM] | Kd (1LysM module of AtlA [3]) [µM] | also measured |
| --- | --- | --- | --- | --- | --- | --- |
| CC(=O)N[C@H]1[C@H](O[C@H]2[C@H](O[C@H](C)C(=O)O)[C@@H](NC(C)=O)C(O)O[C@@H]2CO)O[C@H](CO)[C@@H](O[C@@H]2O[C@H](CO)[C@@H](O[C@@H]3O[C@H](CO)[C@@H](O)[C@H](O)[C@H]3NC(C)=O)[C@H](O[C@H](C)C(=O)O)[C@H]2NC(C)=O)[C@@H]1O (stereo partly drawn) [(GlcNAc-MurNAc)2, (GlcNAc-β−1,4-MurNAc)2] | – | – | – | – | – | Kd (1LysM module of AtlA [1]): 650 µM |
| CC(=O)N[C@H]1[C@H](O[C@H]2[C@H](O)[C@@H](NC(C)=O)C(O)O[C@@H]2CO)O[C@H](CO)[C@@H](O)[C@@H]1O (stereo partly drawn) [GlcNAc2, chitobiose (di-N-acetylchitobiose, beta-1,4-linked GlcNAc dimer)] | 7100 | 4420 | – | – | – | Kd (L1): > 5000 µM; Kd (1 (1LysM, WT) [2]): > 5000 µM; Kd (L1L2): > 5000 µM |
| CC(=O)N[C@H]1[C@H](O[C@H]2[C@H](O)[C@@H](NC(C)=O)C(O)O[C@@H]2CO)O[C@H](CO)[C@@H](O[C@@H]2O[C@H](CO)[C@@H](O)[C@H](O)[C@H]2NC(C)=O)[C@@H]1O (stereo partly drawn) [GlcNAc3, chitotriose (tri-N-acetylchitotriose, beta-1,4-linked GlcNAc trimer)] | 628 ± 32.8 | 702 ± 87.7 | 453 ± 58.6 | 678 ± 57.3 | – | – |
| CC(=O)N[C@H]1[C@H](O[C@H]2[C@H](O)[C@@H](NC(C)=O)C(O)O[C@@H]2CO)O[C@H](CO)[C@@H](O[C@@H]2O[C@H](CO)[C@@H](O)[C@H](O)[C@H]2NC(C)=O)[C@@H]1O (stereo partly drawn) [GlcNAc3] | – | – | – | – | 408 ± 80.8 | – |
| CC(=O)N[C@H]1[C@H](O[C@H]2[C@H](O)[C@@H](NC(C)=O)C(O)O[C@@H]2CO)O[C@H](CO)[C@@H](O[C@@H]2O[C@H](CO)[C@@H](O[C@@H]3O[C@H](CO)[C@@H](O)[C@H](O)[C@H]3NC(C)=O)[C@H](O)[C@H]2NC(C)=O)[C@@H]1O (stereo partly drawn) [GlcNAc4, chitotetraose (tetra-N-acetylchitotetraose, beta-1,4-linked GlcNAc tetramer)] | 22.3 ± 1.8 | 18.6 ± 4.5 | 50.4 ± 4.1 | 38.1 ± 2.8 | – | – |
| CC(=O)N[C@H]1[C@H](O[C@H]2[C@H](O)[C@@H](NC(C)=O)C(O)O[C@@H]2CO)O[C@H](CO)[C@@H](O[C@@H]2O[C@H](CO)[C@@H](O[C@@H]3O[C@H](CO)[C@@H](O)[C@H](O)[C@H]3NC(C)=O)[C@H](O)[C@H]2NC(C)=O)[C@@H]1O (stereo partly drawn) [GlcNAc4, reference compound] | – | – | – | – | 43.4 ± 3 | Kd (1LysM module of AtlA [1]): 90 µM |
| CC(=O)N[C@H]1[C@H](O[C@H]2[C@H](O)[C@@H](NC(C)=O)[C@H](O[C@H]3[C@H](O)[C@@H](NC(C)=O)C(O)O[C@@H]3CO)O[C@@H]2CO)O[C@H](CO)[C@@H](O[C@@H]2O[C@H](CO)[C@@H](O[C@@H]3O[C@H](CO)[C@@H](O)[C@H](O)[C@H]3NC(C)=O)[C@H](O)[C@H]2NC(C)=O)[C@@H]1O (stereo partly drawn) [GlcNAc5, chitopentaose (penta-N-acetylchitopentaose, beta-1,4-linked GlcNAc pentamer)] | 4.6 ± 0.4 | 2.2 ± 0.3 | 12.1 ± 1.4 | 9.6 ± 0.8 | – | Kd (1 (1LysM, WT) [4]): 11.7 ± 1.7 µM |
| CC(=O)N[C@H]1[C@H](O[C@H]2[C@H](O)[C@@H](NC(C)=O)[C@H](O[C@H]3[C@H](O)[C@@H](NC(C)=O)C(O)O[C@@H]3CO)O[C@@H]2CO)O[C@H](CO)[C@@H](O[C@@H]2O[C@H](CO)[C@@H](O[C@@H]3O[C@H](CO)[C@@H](O[C@@H]4O[C@H](CO)[C@@H](O)[C@H](O)[C@H]4NC(C)=O)[C@H](O)[C@H]3NC(C)=O)[C@H](O)[C@H]2NC(C)=O)[C@@H]1O (stereo partly drawn) [GlcNAc6, chitohexaose (hexa-N-acetylchitohexaose, beta-1,4-linked GlcNAc hexamer)] | 3 ± 0.1 | 1.5 ± 0.1 | 5.6 ± 0.5 | 5 ± 0.3 | – | – |
| CC(=O)N[C@H]1[C@H](O[C@H]2[C@H](O)[C@@H](NC(C)=O)[C@H](O[C@H]3[C@H](O)[C@@H](NC(C)=O)C(O)O[C@@H]3CO)O[C@@H]2CO)O[C@H](CO)[C@@H](O[C@@H]2O[C@H](CO)[C@@H](O[C@@H]3O[C@H](CO)[C@@H](O[C@@H]4O[C@H](CO)[C@@H](O)[C@H](O)[C@H]4NC(C)=O)[C@H](O)[C@H]3NC(C)=O)[C@H](O)[C@H]2NC(C)=O)[C@@H]1O (stereo partly drawn) [GlcNAc6] | – | – | – | – | 6 ± 0.8 | – |

Reference: paper PMC4083421 (Nature Communications, 2014)
